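96-well plates; 48 h exposure; 5 concentrations. Endpoints by linear interpolation between flanking doses. Not reached: highest tested concentration assigned. GI50 = concentration required for 50% inhibition of growth. TGI: concentration producing complete growth inhibition.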
Key:
Test in all cases: NCI anticancer screen, dose series, 48 h
T-47D breast = test system: T-47D breast
786-0 renal = test system: 786-0 renal
UACC-257 melanoma = test system: UACC-257 melanoma
M14 melanoma = test system: M14 melanoma
NCI-H226 lung = test system: NCI-H226 lung
SNB-75 CNS = test system: SNB-75 CNS
SW-620 colon = test system: SW-620 colon
SF-268 CNS = test system: SF-268 CNS
UO-31 renal = test system: UO-31 renal
NCI-H460 lung = test system: NCI-H460 lung
COLO 205 colon = test system: COLO 205 colon
NCI-H23 lung = test system: NCI-H23 lung
HOP-62 NSCLC = test system: HOP-62 NSCLC
RXF 393 renal = test system: RXF 393 renal
OVCAR-3 ovarian = test system: OVCAR-3 ovarian
TK-10 renal = test system: TK-10 renal
CCRF-CEM leukemia = test system: CCRF-CEM leukemia
KM12 colon = test system: KM12 colon
SK-OV-3 ovarian = test system: SK-OV-3 ovarian
RPMI-8226 leukemia = test system: RPMI-8226 leukemia
BT-549 breast = test system: BT-549 breast
SK-MEL-28 melanoma = test system: SK-MEL-28 melanoma
OVCAR-4 ovarian = test system: OVCAR-4 ovarian
PC-3 prostate = test system: PC-3 prostate
HS 578T breast = test system: HS 578T breast
UACC-62 melanoma = test system: UACC-62 melanoma
SK-MEL-2 melanoma = test system: SK-MEL-2 melanoma
MDA-MB-435 = test system: MDA-MB-435
MOLT-4 leukemia = test system: MOLT-4 leukemia
SK-MEL-5 melanoma = test system: SK-MEL-5 melanoma
EKVX NSCLC = test system: EKVX NSCLC
K-562 leukemia = test system: K-562 leukemia
ACHN renal = test system: ACHN renal
HOP-92 NSCLC = test system: HOP-92 NSCLC
SF-295 CNS = test system: SF-295 CNS
CAKI-1 renal = test system: CAKI-1 renal
SN12C renal = test system: SN12C renal
LOX IMVI melanoma = test system: LOX IMVI melanoma
HCC-2998 colon = test system: HCC-2998 colon
SNB-19 CNS = test system: SNB-19 CNS
HT29 colon = test system: HT29 colon
HL-60(TB) leukemia = test system: HL-60(TB) leukemia
IGROV1 ovarian = test system: IGROV1 ovarian
SR leukemia = test system: SR leukemia
SF-539 CNS = test system: SF-539 CNS
A549 NSCLC = test system: A549 NSCLC
DU-145 prostate = test system: DU-145 prostate
MALME-3M melanoma = test system: MALME-3M melanoma
OVCAR-8 ovarian = test system: OVCAR-8 ovarian
HCT-15 colon = test system: HCT-15 colon
MDA-MB-231 breast = test system: MDA-MB-231 breast
A498 renal = test system: A498 renal
OVCAR-5 ovarian = test system: OVCAR-5 ovarian
MDA-MB-468 breast = test system: MDA-MB-468 breast
NCI-H522 lung = test system: NCI-H522 lung
U251 CNS = test system: U251 CNS
MCF7 breast = test system: MCF7 breast
HCT-116 colon = test system: HCT-116 colon

O=C(c1ccc(O)cc1)C1[C@H](c2ccccc2Br)[C@@H](c2ccccc2)NC12C(=O)Nc1ccccc12 (stereo partly specified)
GI50 (T-47D breast): 10.5 µM | TGI (T-47D breast): 38.9 µM | GI50 (786-0 renal): 9.47 µM | TGI (786-0 renal): 18.1 µM | GI50 (UACC-257 melanoma): 8.73 µM | TGI (UACC-257 melanoma): 16.9 µM | GI50 (M14 melanoma): 8.94 µM | TGI (M14 melanoma): 17.7 µM | GI50 (NCI-H226 lung): 6.82 µM | TGI (NCI-H226 lung): 15 µM | GI50 (SNB-75 CNS): 7.87 µM | TGI (SNB-75 CNS): 19.9 µM | GI50 (SW-620 colon): 10.1 µM | TGI (SW-620 colon): 19.6 µM | GI50 (SF-268 CNS): 7.83 µM | TGI (SF-268 CNS): 18.8 µM | GI50 (UO-31 renal): 7.61 µM | TGI (UO-31 renal): 15 µM | GI50 (NCI-H460 lung): 9.17 µM | TGI (NCI-H460 lung): 17.8 µM | GI50 (COLO 205 colon): 9.19 µM | TGI (COLO 205 colon): 17.8 µM | GI50 (NCI-H23 lung): 9.23 µM | TGI (NCI-H23 lung): 18.2 µM | GI50 (HOP-62 NSCLC): 9.37 µM | TGI (HOP-62 NSCLC): 18.1 µM | GI50 (RXF 393 renal): 5.14 µM | TGI (RXF 393 renal): 12.8 µM | GI50 (OVCAR-3 ovarian): 9.2 µM | TGI (OVCAR-3 ovarian): 18.3 µM | GI50 (TK-10 renal): 9.29 µM | TGI (TK-10 renal): 18.8 µM | GI50 (CCRF-CEM leukemia): 10 µM | TGI (CCRF-CEM leukemia): 22.9 µM | GI50 (KM12 colon): 9.8 µM | TGI (KM12 colon): 20.2 µM | GI50 (SK-OV-3 ovarian): 11.9 µM | TGI (SK-OV-3 ovarian): 31.3 µM | GI50 (RPMI-8226 leukemia): 12.8 µM | TGI (RPMI-8226 leukemia): 42.6 µM | GI50 (BT-549 breast): 7.23 µM | TGI (BT-549 breast): 15 µM | GI50 (SK-MEL-28 melanoma): 9.1 µM | TGI (SK-MEL-28 melanoma): 17.2 µM | GI50 (OVCAR-4 ovarian): 8.72 µM | TGI (OVCAR-4 ovarian): 19.1 µM | GI50 (PC-3 prostate): 8.03 µM | TGI (PC-3 prostate): 21.3 µM | GI50 (HS 578T breast): 9.49 µM | TGI (HS 578T breast): 27.2 µM | GI50 (UACC-62 melanoma): 7.63 µM | TGI (UACC-62 melanoma): 15.1 µM | GI50 (SK-MEL-2 melanoma): 8.33 µM | TGI (SK-MEL-2 melanoma): 16.2 µM | GI50 (MDA-MB-435): 10.5 µM | TGI (MDA-MB-435): 20 µM | GI50 (MOLT-4 leukemia): 7.99 µM | TGI (MOLT-4 leukemia): 25 µM | GI50 (SK-MEL-5 melanoma): 8.92 µM | TGI (SK-MEL-5 melanoma): 16.9 µM | GI50 (EKVX NSCLC): 9.34 µM | TGI (EKVX NSCLC): 23.2 µM | GI50 (K-562 leukemia): 12.9 µM | TGI (K-562 leukemia): 40.2 µM | GI50 (ACHN renal): 9.17 µM | TGI (ACHN renal): 17.8 µM | GI50 (HOP-92 NSCLC): 7.83 µM | TGI (HOP-92 NSCLC): 16.4 µM | GI50 (SF-295 CNS): 9.77 µM | TGI (SF-295 CNS): 21 µM | GI50 (CAKI-1 renal): 7 µM | TGI (CAKI-1 renal): 15.1 µM | GI50 (SN12C renal): 8.7 µM | TGI (SN12C renal): 16.6 µM | GI50 (LOX IMVI melanoma): 8.3 µM | TGI (LOX IMVI melanoma): 16.2 µM | GI50 (HCC-2998 colon): 8.48 µM | TGI (HCC-2998 colon): 16.6 µM | GI50 (SNB-19 CNS): 9.03 µM | TGI (SNB-19 CNS): 17.2 µM | GI50 (HT29 colon): 10.2 µM | TGI (HT29 colon): 20.5 µM | GI50 (HL-60(TB) leukemia): 15.1 µM | TGI (HL-60(TB) leukemia): 44.7 µM | GI50 (IGROV1 ovarian): 7.29 µM | TGI (IGROV1 ovarian): 15.5 µM | GI50 (SR leukemia): 9.59 µM | TGI (SR leukemia): 24 µM | GI50 (SF-539 CNS): 9.08 µM | TGI (SF-539 CNS): 17.2 µM | GI50 (A549 NSCLC): 8.07 µM | TGI (A549 NSCLC): 16.9 µM | GI50 (DU-145 prostate): 10 µM | TGI (DU-145 prostate): 19 µM | GI50 (MALME-3M melanoma): 8.58 µM | TGI (MALME-3M melanoma): 16.4 µM | GI50 (OVCAR-8 ovarian): 9.27 µM | TGI (OVCAR-8 ovarian): 17.7 µM | GI50 (HCT-15 colon): 9.43 µM | TGI (HCT-15 colon): 20 µM | GI50 (MDA-MB-231 breast): 7.94 µM | TGI (MDA-MB-231 breast): 15.8 µM | GI50 (A498 renal): 8.6 µM | TGI (A498 renal): 16.8 µM | GI50 (OVCAR-5 ovarian): 9.47 µM | TGI (OVCAR-5 ovarian): 18.2 µM | GI50 (MDA-MB-468 breast): 7.08 µM | TGI (MDA-MB-468 breast): 16 µM | GI50 (NCI-H522 lung): 8.25 µM | TGI (NCI-H522 lung): 17.5 µM | GI50 (U251 CNS): 9.11 µM | TGI (U251 CNS): 17.1 µM | GI50 (MCF7 breast): 10.4 µM | TGI (MCF7 breast): 27.6 µM | GI50 (HCT-116 colon): 8.93 µM | TGI (HCT-116 colon): 18 µM
